The record followed here is patent US20260297542A1, “HERBICIDE RESISTANT PLANTS” (SYNGENTA CROP PROTECTION AG, priority 2023, published 2026).

Each structure is given as a SMILES string. Numbering of substitutions follows the chain as printed.

Holding throughout (assay): E. coli hemG growth inhibition by herbicide, AtPPO1 variant
Assay type in all cases: cell-based
What all share (conditions): read-out: percentage growth inhibition

In one test the target is T1, AtPPO1 A220C (Arabidopsis thaliana, UniProt P55826, A220C).
T1 construct: expressed in transfected cells; host or cells: E. coli BL21(DE3) hemG (hemG replaced by CmR), pET24a plasmid
T1 sequence (P55826 35-537 A220C): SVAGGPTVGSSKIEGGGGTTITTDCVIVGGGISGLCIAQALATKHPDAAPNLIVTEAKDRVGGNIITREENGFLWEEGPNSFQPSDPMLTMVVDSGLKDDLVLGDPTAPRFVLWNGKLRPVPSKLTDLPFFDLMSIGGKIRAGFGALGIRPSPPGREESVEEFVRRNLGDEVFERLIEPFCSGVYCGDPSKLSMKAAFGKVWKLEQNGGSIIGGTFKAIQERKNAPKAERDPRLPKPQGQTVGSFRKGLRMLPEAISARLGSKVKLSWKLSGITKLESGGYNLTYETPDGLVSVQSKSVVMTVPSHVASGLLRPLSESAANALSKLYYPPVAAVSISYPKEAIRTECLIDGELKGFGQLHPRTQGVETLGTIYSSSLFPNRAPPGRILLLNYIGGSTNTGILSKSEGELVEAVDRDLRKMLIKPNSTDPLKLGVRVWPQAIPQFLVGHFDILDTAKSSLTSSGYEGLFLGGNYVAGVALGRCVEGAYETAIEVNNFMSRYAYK
The gist of the method:
(§1)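 AtPPO1 variants from a site-saturation library, codon-optimised and T7-driven in pET24a, were expressed in E. coli BL21(DE3) lacking hemG (hemG replaced by CmR). Growth in Terrific broth with 0.1 mM IPTG plus 6.25 ppm herbicide 0 or E, 0.78 ppm herbicide B, or DMSO was read as OD600 after 24 h at 37° C; inhibition was calculated against the DMSO culture.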

Another test has as its target T2, AtPPO1 G481K (Arabidopsis thaliana, UniProt P55826, G481K).
T2 construct: expressed in transfected cells; host or cells: E. coli BL21(DE3) hemG, pET24a plasmid
T2 sequence (P55826 35-537 G481K): T1 sequence (P55826 35-537 A220C) with C186A, G447K
Put shortly:
as §1

The target in the next test is T3, AtPPO1 Y362C (Arabidopsis thaliana, UniProt P55826, Y362C).
T3 construct: expressed in transfected cells; host or cells: E. coli BL21(DE3) hemG, pET24a plasmid
T3 sequence (P55826 35-537 Y362C): T1 sequence (P55826 35-537 A220C) with C186A, Y328C
Put shortly: as §1

Another test addresses T4, AtPPO1 Y361C (Arabidopsis thaliana, UniProt P55826, Y361C).
T4 construct: expressed in transfected cells; host or cells: E. coli BL21(DE3) hemG, pET24a plasmid
T4 sequence (P55826 35-537 Y361C): T1 sequence (P55826 35-537 A220C) with C186A, Y327C
Put shortly: as §1

A word on the inhibition: it is the drop in the measured response relative to a control, in per cent.

With `C#CCN1C(=O)C(F)(F)Oc2cc(F)c(-n3c(=O)n(C)c(=S)n(C)c3=O)cc21` [Herbicide B, trifludimoxazin], the inhibition at 0.78 ppm was found to be 15% on AtPPO1 A220C, 10% at AtPPO1 G481K, 37% at AtPPO1 Y362C and 36% at AtPPO1 Y361C.

As to `CCOC(=O)[C@]1(C)CC(c2cc(-n3c(=O)n(C)c(=S)n(C)c3=O)c(F)cc2Cl)=NO1` [Herbicide D, ethyl (5S)-3-[2-chloro-5-(3,5-dimethyl-2,6-dioxo-4-thioxo-1,3,5-triazinan-1-yl)-4-fluoro-phenyl]-5-methyl-4H-isoxazole-5-carboxylate], the inhibition at 6.25 ppm on AtPPO1 A220C came out at 33%; on AtPPO1 G481K it was 12%; at AtPPO1 Y362C it was 43%; at AtPPO1 Y361C, 15%.

In the case of `CC(C)N(C)S(=O)(=O)NC(=O)c1cc(-n2c(=O)cc(C(F)(F)F)n(C)c2=O)c(F)cc1Cl` [Herbicide E, saflufenacil], the inhibition at 6.25 ppm at AtPPO1 A220C was determined as 66%; on AtPPO1 G481K it was 0%; at AtPPO1 Y362C it was 58%; on AtPPO1 Y361C, 35%.
